Measurements reported in ChEMBL document CHEMBL2074315, “Role of human organic anion transporter 4 in the transport of ochratoxin A” (Biochim Biophys Acta, 2002).
pKi: −log10 of the molar value.

How the values were obtained:
Assay type in all cases: functional, cell-based
[1] = biological target: T1, Solute carrier family 22 member 11 (Homo sapiens, UniProt Q9NSA0); assay: TP_TRANSPORTER: inhibition of Ochratoxin A uptake (OTA: 1 uM, Aspartame: 200 uM) in OAT4-expressing S2 cells; details: s2, 200 µM
T1 sequence (Q9NSA0 whole entry): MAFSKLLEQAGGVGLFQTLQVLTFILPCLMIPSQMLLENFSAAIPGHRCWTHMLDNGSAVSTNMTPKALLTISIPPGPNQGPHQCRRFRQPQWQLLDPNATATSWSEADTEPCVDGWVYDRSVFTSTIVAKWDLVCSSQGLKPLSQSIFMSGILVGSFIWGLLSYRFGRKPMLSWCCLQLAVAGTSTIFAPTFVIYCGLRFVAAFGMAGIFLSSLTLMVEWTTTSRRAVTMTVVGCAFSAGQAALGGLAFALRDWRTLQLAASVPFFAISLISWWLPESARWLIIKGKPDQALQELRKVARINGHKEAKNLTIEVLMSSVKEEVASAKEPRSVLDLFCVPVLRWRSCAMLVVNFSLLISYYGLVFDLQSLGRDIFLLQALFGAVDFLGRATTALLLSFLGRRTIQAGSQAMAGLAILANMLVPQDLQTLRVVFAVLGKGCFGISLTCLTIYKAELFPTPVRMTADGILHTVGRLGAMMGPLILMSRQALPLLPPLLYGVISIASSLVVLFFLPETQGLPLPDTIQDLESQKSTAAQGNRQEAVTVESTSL

[2] = biological target: T2, OAT4 (SLC22A11, solute carrier family 22 member 11) (Homo sapiens, UniProt Q9NSA0); assay: TP_TRANSPORTER: uptake in OAT4-expressing S2 cells
T2 sequence (Q9NSA0 whole entry): T1 sequence (Q9NSA0 whole entry)

[3] = biological target: T1, Solute carrier family 22 member 11; assay: TP_TRANSPORTER: inhibition of Ochratoxin A uptake (OTA: 1 uM, PAH: 200 uM) in OAT4-expressing S2 cells; details: mouse, s2, 200 µM
[4] = biological target: T1, Solute carrier family 22 member 11; assay: TP_TRANSPORTER: inhibition of Ochratoxin A uptake in OAT4-expressing S2 cells
[5] = biological target: T1, Solute carrier family 22 member 11; assay: TP_TRANSPORTER: inhibition of Ochratoxin A uptake (OTA: 1 uM, Indomethacin: 200 uM) in OAT4-expressing S2 cells; details: mouse, s2, 200 µM
[6] = biological target: T1, Solute carrier family 22 member 11; assay: TP_TRANSPORTER: inhibition of Ochratoxin A uptake (OTA: 1 uM, PCG: 200 uM) in OAT4-expressing S2 cells; details: s2, 200 µM

SMILES: COC(=O)[C@H](Cc1ccccc1)NC(=O)[C@@H](N)CC(=O)O
- Activity [1]: inhibitor [(at a rough estimate) 80 % of control]

SMILES: C[C@@H]1Cc2c(Cl)cc(C(=O)N[C@@H](Cc3ccccc3)C(=O)O)c(O)c2C(=O)O1 [3R14S-OCHRATOXIN A]
- Km [2]: 22.9 µM

SMILES: Nc1ccc(C(=O)NCC(=O)O)cc1 [AMINOHIPPURIC ACID]
- Activity [3]: is not an inhibitor [-]

SMILES: CC1=C2C(=CO[C@H](C)[C@H]2C)C(O)=C(C(=O)O)C1=O [CITRININ]
- pKi [4]: 3.44

SMILES: COc1ccc2c(c1)c(CC(=O)O)c(C)n2C(=O)c1ccc(Cl)cc1 [INDOMETHACIN]
- Activity [5]: inhibitor [(at a rough estimate) 75 % of control]

SMILES: CCCCCCCC(=O)O [OCTANOIC ACID]
- pKi [4]: 3.63

SMILES: CC1(C)S[C@@H]2[C@H](NC(=O)Cc3ccccc3)C(=O)N2[C@H]1C(=O)O [PENICILLIN G]
- Activity [6]: inhibitor [(at a rough estimate) 20 % of control]

SMILES: CN1C(C(=O)Nc2ccccn2)=C(O)c2ccccc2S1(=O)=O [PIROXICAM]
- pKi [4]: 3.97
